In patent US20150158870A1, “POLYMORPHS OF 7-(TERT-BUTYL-D9)-3-(2,5-DIFLUOROPHENYL)-6-((1-METHYL-1H-1,2,4-TRIAZOL-5-YL)METHOXY)-[1,2,4]TRIAZOLO[4,3-B]PYRIDAZINE” (Concert Pharmaceuticals Inc., priority 2012, published 2015):

Experiments:
Type in all cases: physicochemical
[1] = Stability of Form 1 to physical and chemical manipulation (Example 3)
Description: Form 1 is stable to lyophilization when initially dissolved in a 50:50 mixture of DMC:ACN.
A saturated solution of Form 1 in any of MeOH, ACN, acetone, DCM, TFE, or 1,4-dioxane is stable to evaporation over 3.5 hours at 30° C. under reduced pressure.
A saturated solution of Form 1 in any of MeOH, THF, MeOAc, Toluene, or EtOH in 1 vol % Heptane is stable after heating to 50° C., filtering the solution and rapidly cooling to 5° C.
A suspension of Form 1 in any of DMSO, n-BuOH, 2-Methoxyethanol, IPA, EtOH, Nitromethane, DMC, n-PrOH, ACN, Acetone, 2-Butanone, EtOAc, THF, EtOH in 5 vol % Toluene, MeOAc, or EtOH in 5 vol % MeOH is stable after cycling temperature between 5 and 40° C. for >48 hrs with constant stirring.
Form 1 was also stable to exposure to 75% relative humidity or to high pressure (10 kPSi).
A saturated solution of Form 1 in any of n-PrOH, ACN, Acetone, 2-Butanone, EtOAc, THF, EtOH in 5 vol % Toluene, MeOAc, or EtOH in 5 vol % MeOH at 25° C., is stable after filtering the solution and then cooling the solution to 5° C. at a rate of 1° C./min.
A saturated solution of Form 1 in any of TFE, 2-Methoxyethanol, IPA, EtOH, Heptane, 4-Methyl-2-pentanone, cyclohexane, ACN, Acetone, 2-Butanone, EtOAc, THF, or EtOH in 5 vol % Toluene is stable to evaporation over 2-28 days under ambient conditions.

[2] = Physical (crystal form) stability on exposure to ambient conditions, relative humidity or elevated pressure; settings: for crystal form change on exposure to 75% relative humidity: 75% relative humidity for five days; for crystal form change on exposure to 97% relative humidity: 97% relative humidity for 5 days
From the text: (§1) Form 1 is a non-solvated, non-hygroscopic crystal.
Form 3 is a non-solvated and non-hygroscopic crystal.
Form 4 is a non-solvated crystal.

[3] = Milling at -196° C. and recrystallization
From the text: as §1

[4] = Dynamic Vapor Sorption (DVS) analysis; settings: for weight gained in DVS analysis: between 0-90% relative humidity, 25° C.
Description: Dynamic Vapor Sorption (DVS). DVS experiments were conducted on a Surface Measurement Systems DVS-HT at 25° C. The instrument was operated in step mode and the relative humidity was increased in 10% RH increments from 40% RH to 90% RH, then decreased from 90% RH to 0% RH, then increased from 0% RH to 90% RH, then decreased from 90% RH to 0% RH. An extra step at 75% RH was included in each cycle. The mass equilibrium criterion was set at 0.005% change in mass over time (dm/dt) prior to each humidity level. A minimum step time of 10 minutes and a maximum step time of 240 minutes were specified.

crystal form stability to exposure to water vapor ([1]; 75% relative humidity)	crystal form stability to pressing ([1]; high pressure (10 kPSi))	crystal form stability to lyophilization ([1]; initially dissolved in a 50:50 mixture of DMC:ACN)	crystal form stability to controlled cooling ([1]; saturated solution at 25° C. in any of n-PrOH, ACN, Acetone, 2-Butanone, EtOAc, THF, EtOH in 5 vol % Toluene, MeOAc, EtOH in 5 vol % MeOH, filtered, cooled to 5° C. at 1° C./min)	crystal form stability to fast evaporation ([1]; saturated solution in any of MeOH, ACN, acetone, DCM, TFE or 1,4-dioxane, evaporation over 3.5 hours at 30° C. under reduced pressure)	crystal form stability to rapid cooling ([1]; saturated solution in any of MeOH, THF, MeOAc, Toluene or EtOH in 1 vol % Heptane, heated to 50° C., filtered, rapidly cooled to 5° C.)	crystal form stability to slow evaporation ([1]; saturated solution in any of TFE, 2-Methoxyethanol, IPA, EtOH, Heptane, 4-Methyl-2-pentanone, cyclohexane, ACN, Acetone, 2-Butanone, EtOAc, THF, EtOH in 5 vol % Toluene, evaporation over 2-28 days under ambient conditions)	crystal form stability to slurry equilibration ([1]; suspension in any of DMSO, n-BuOH, 2-Methoxyethanol, IPA, EtOH, Nitromethane, DMC, n-PrOH, ACN, Acetone, 2-Butanone, EtOAc, THF, EtOH in 5 vol % Toluene, MeOAc, EtOH in 5 vol % MeOH, cycling 5-40° C. for >48 hrs with stirring)	crystal form change on exposure to 75% relative humidity [2]	crystal form change on exposure to 97% relative humidity [2]	physical stability at ambient conditions ([2]; ambient conditions, no duration stated)	crystal form change on exposure to elevated pressures ([2]; elevated pressures (~0.35 GPa) for 3 days)	time to recrystallize back to Form 1 after milling ([3]; after becoming amorphous by milling at -196° C. for 2.5 hours)	solid form after milling ([3]; milled at -196° C. for 2.5 hours)	hygroscopicity of the crystal [4]	weight gained in DVS analysis [4]	time physically stable at ambient conditions ([2]; ambient conditions)	SMILES
stable	stable	stable	stable	stable	stable	stable	stable	does not undergo a crystal form change	partially converts to Form 2	physically stable	does not undergo a crystal form change	≤ 30 min	becomes amorphous	non-hygroscopic	< 0.25 % wt		[2H]C([2H])([2H])C(c1cc2nnc(-c3cc(F)ccc3F)n2nc1OCc1ncnn1C)(C([2H])([2H])[2H])C([2H])([2H])[2H] [Form 1, 7-(tert-Butyl-d9)-3-(2,5-difluorophenyl)-6-((1-methyl-1H-1,2,4-triazol-5-yl)methoxy)-[1,2,4]triazolo[4,3-b]pyridazine]
									does not undergo a crystal form change					non-hygroscopic	< 0.25 % wt	at least 2 weeks	[2H]C([2H])([2H])C(c1cc2nnc(-c3cc(F)ccc3F)n2nc1OCc1ncnn1C)(C([2H])([2H])[2H])C([2H])([2H])[2H] [Form 3, 7-(tert-Butyl-d9)-3-(2,5-difluorophenyl)-6-((1-methyl-1H-1,2,4-triazol-5-yl)methoxy)-[1,2,4]triazolo[4,3-b]pyridazine]
								does not undergo a crystal form change								at least 2 weeks	[2H]C([2H])([2H])C(c1cc2nnc(-c3cc(F)ccc3F)n2nc1OCc1ncnn1C)(C([2H])([2H])[2H])C([2H])([2H])[2H] [Form 4, 7-(tert-Butyl-d9)-3-(2,5-difluorophenyl)-6-((1-methyl-1H-1,2,4-triazol-5-yl)methoxy)-[1,2,4]triazolo[4,3-b]pyridazine]
